In patent US12011497B2, “Compounds, compositions containing same, and use thereof for promoting hair growth” (Molgenbio Co. Ltd., priority 2018, dated 2024):
In brackets after ≈: the same amount, converted by molar mass.

How the values were obtained:
CD4+ T cells = assay: in vitro T cell activity assay (CTV-stained CD4+ T cell proliferation, flow cytometry); format: cell-based; conditions: B6J mouse spleen CD4+ T cells activated with CD3/CD28 Dynabeads, 72 hours incubation, 0.01-1000 ng/mL, CTV intensity
Text: The degrees of decreases in immunosuppressive activity of the nine novel compounds were identified by a known in vitro T cell activity assay (J. Immunol. 143:718-726, 1989).
CD4+ T cell division is an indicator of immune response. When CD4+ T cells stained with Cell Trace™ Violet (CTV) proliferate by immune responses, the amount of CTV of each cell decreases, and thus the degrees of immunosuppressive activity were identified using this as an indicator.
Single cells were isolated from spleen of 6- to 8-week-old B6J experimental mice, and CD4+ T cells were isolated using a MagniSort® Mouse CD4 T cell Enrichment Kit (eBioscience). CD4+ T cells were stained with a Cell Trace™ Violet (CTV) Cell Proliferation Kit (Molecular Probes), and FK506 or the nine novel compounds were added thereto in concentrations of 0.01 ng/mL, 0.1 ng/mL, 1 ng/mL, 10 ng/mL, 100 ng/mL, and 1000 ng/mL, respectively, followed by incubation for 72 hours. In order to activate T cells, Dynabeads® Mouse T-Activator CD3/CD28 (Gibco) was used. As a control, inactivated T cells were used. After incubation, CTV intensity was analyzed by flow cytometry.
Table 12 below and FIG. 55 show the degrees of T cell proliferation based on CTV intensities measured using a flow cytometer, indicating the degrees of immunosuppressive activity of FK506 and the nine novel compounds.

vibrissae tissue of mice = assay: hair growth-promoting activity in cultured isolated mouse vibrissae; format: cell-based; conditions: histology of cultured treated vibrissae, FIG. 58
Experimental: Hair growth-promoting activity of the nine novel compounds of the present invention relative to that of the parent drug (FK506) was evaluated using vibrissae tissue of mice. The mouth and mouth tissue (whisker pad) around the mouth where thick hair grows were peeled off from each of 6- to 8-week-old experimental black mouse (C57BL/6 mouse) and treated with […] for a short time of several seconds. The treated mouth tissue was prepared in a state of being immersed in phosphate-buffered saline (PBS) supplemented with 1% penicillin/streptomycin (P/S) on ice. Surrounding subcutaneous fat tissue and connective tissue were removed using forceps and blades while observing the prepared mouth tissue using a dissecting microscope to expose vibrissae tissue. […] Based on the results, it was confirmed that the composition for promoting hair growth, including at least one of the nine novel compounds of the present invention as an active ingredient, had the effects on promoting hair growth as desired, and thus it was determined that the composition may be effectively used for preventing and treating hair loss.

| Molecule | Immunosuppression IC50 (CD4+ T cells) [ng/mL] | expression of growth marker (Ki67) of cells compared to an untreated group (vibrissae tissue of mice) | IC50 (CD4+ T cells; read-out: Immunosuppression IC50) [ng/mL] |
| --- | --- | --- | --- |
| 9-deoxo-31-O-demethyl-prolyl-FK506 | 886.5 | – | – |
| CCCC1C=C(C)CC(C)CC(OC)C2OC(O)(CC(=O)N3CCCCC3C(=O)OC(C(C)=CC3CCC(O)C(O)C3)C(C)C(O)CC1=O)C(C)CC2OC (stereo not drawn) [9-deoxo-31-O-demethyl-36,37-dihydro-FK506] | 45.87 | – | – |
| CCCC1C=C(C)CC(C)CC(OC)C2OC(O)(CC(=O)N3CCCCC3C(=O)OC(C(C)=CC3CCC(O)C(OC)C3)C(C)C(O)CC1=O)C(C)CC2OC (stereo not drawn) [9-deoxo-36,37-dihydro-FK506] | 14.1 | – | – |
| CC[C@@H]1/C=C(\C)C[C@H](C)C[C@H](OC)[C@H]2O[C@@](O)(CC(=O)N3CCCC[C@H]3C(=O)O[C@H](/C(C)=C/[C@@H]3CC[C@@H](O)[C@H](O)C3)[C@H](C)[C@@H](O)CC1=O)[C@H](C)C[C@@H]2OC [9-deoxo-31-O-demethyl-FK520] | 258.1 | overexpressed | – |
| CC[C@@H]1/C=C(\C)C[C@H](C)C[C@H](OC)[C@H]2O[C@@](O)(C(=O)C(=O)N3CCCC[C@H]3C(=O)O[C@H](/C(C)=C/[C@@H]3CC[C@@H](O)[C@H](O)C3)[C@H](C)[C@@H](O)CC1=O)[C@H](C)C[C@@H]2OC [31-O-demethyl-FK520] | 3.273 | – | – |
| C=CCC1/C=C(\C)CC(C)CC(OC)C2OC(O)(C(=O)C(=O)N3CCCCC3C(=O)OC(/C(C)=C/C3CCC(O)C(O)C3)C(C)C(O)CC1=O)C(C)CC2OC (stereo not drawn) [31-O-demethyl-FK506, reference compound] | 0.246 | – | – |
| CO[C@H]1C[C@@H](C)C/C(C)=C/[C@@H](C)C(=O)C[C@H](O)[C@@H](C)[C@@H](/C(C)=C/[C@@H]2CC[C@@H](O)[C@H](O)C2)OC(=O)[C@@H]2CCCCN2C(=O)C[C@]2(O)O[C@H]1[C@@H](OC)C[C@H]2C [9-deoxo-31-O-demethyl-FK523] | 3378 | – | – |
| C=CC[C@@H]1/C=C(\C)C[C@H](C)C[C@H](OC)[C@H]2O[C@@](O)(CC(=O)N3CCCC[C@H]3C(=O)O[C@H](/C(C)=C/C3CC[C@@H](O)[C@H](OC)C3)[C@H](C)[C@H](O)CC1=O)[C@H](C)C[C@@H]2OC (stereo partly drawn) [9-deoxo-FK506, reference compound] | 0.513 | – | – |
| 9-deoxo-prolyl-FK506 [reference compound] | 268.3 | – | – |
| C=CC[C@@H]1/C=C(/C)C[C@H](C)C[C@H](OC)[C@H]2O[C@@](O)(CC(=O)N3CCCC[C@H]3C(=O)O[C@H](/C(C)=C/[C@@H]3CC[C@@H](O)[C@H](O)C3)[C@H](C)[C@@H](O)CC1=O)[C@H](C)C[C@@H]2OC [9-deoxo-31-O-demethyl-FK506, reference compound] | 15.09 | – | – |
| C=CC[C@@H]1/C=C(\C)C[C@H](C)C[C@H](OC)[C@H]2O[C@@](O)(C(=O)C(=O)N3CCCC[C@H]3C(=O)O[C@H](/C(C)=C/[C@@H]3CC[C@@H](O)[C@H](OC)C3)[C@H](C)[C@@H](O)CC1=O)[C@H](C)C[C@@H]2OC [FK506, reference compound] | – | – | 0.027 (≈ 0.0336 nM) |
| COC1CC(C=C(C)C2OC(=O)C3CCCCN3C(=O)CC3(O)OC(C(OC)CC(C)CC(C)=CC(C)C(=O)CC(O)C2C)C(OC)CC3C)CCC1O (stereo not drawn) [9-deoxo-FK523] | 1985 | – | – |
| CCC[C@@H]1/C=C(\C)C[C@H](C)C[C@H](OC)[C@H]2O[C@@](O)(C(=O)C(=O)N3CCCC[C@H]3C(=O)O[C@H](/C(C)=C/[C@@H]3CC[C@@H](O)[C@H](O)C3)[C@H](C)[C@@H](O)CC1=O)[C@H](C)C[C@@H]2OC [31-O-demethyl-36,37-dihydro-FK506] | 1.723 | – | – |
| CCC1C=C(C)CC(C)CC(OC)C2OC(O)(CC(=O)N3CCCCC3C(=O)OC(C(C)=CC3CCC(O)C(OC)C3)C(C)C(O)CC1=O)C(C)CC2OC (stereo not drawn) [9-deoxo-FK520] | 24.98 | – | – |
